pIC50: −log10 of the molar value. Some results are limits rather than exact numbers.

Sequence of Human factor D (P00746 26-253): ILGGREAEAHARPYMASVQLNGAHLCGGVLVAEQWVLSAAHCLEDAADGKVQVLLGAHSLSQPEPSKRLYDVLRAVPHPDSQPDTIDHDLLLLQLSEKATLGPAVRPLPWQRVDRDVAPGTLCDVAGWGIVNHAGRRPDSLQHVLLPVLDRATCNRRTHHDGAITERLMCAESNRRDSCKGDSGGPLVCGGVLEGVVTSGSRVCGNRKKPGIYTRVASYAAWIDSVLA

The first test addresses Human factor D (Homo sapiens (Human), UniProt P00746). Put plainly: Human Factor D Assay. In kind it is biochemical.
Conditions: not given
The term pIC50 denotes the IC50 on a negative log10 scale, so that one unit is a factor of ten. The molecule `CC(=O)c1cn(CC(=O)N2C[C@H](F)C[C@H]2C(=O)Nc2ccccc2-n2nccc2C)c2ccc(Nc3cncnc3)cc12` [Compound 30, (2S,4R)-1-(2-(3-acetyl-5-(pyrimidin-5-ylamino)-1H-indol-1-yl)acetyl)-4-fluoro-N-(2-(5-methyl-1H-pyrazol-1-yl)phenyl)pyrrolidine-2-carboxamide] had a pIC50 of 5.00 to 6.00.

In turn, `CC(=O)c1cn(CC(=O)N2C[C@H](F)C[C@H]2C(=O)Nc2nnc(-c3ccccc3Cl)s2)c2ccc(Nc3cncnc3)cc12` [Compound 34, (2S,4R)-1-(2-(3-acetyl-5-(pyrimidin-5-ylamino)-1H-indol-1-yl)acetyl)-N-(5-(2-chlorophenyl)-1,3,4-thiadiazol-2-yl)-4-fluoropyrrolidine-2-carboxamide] showed a pIC50 of 5.00 to 6.00.

For `CC(=O)c1cn(CC(=O)N2C[C@H](F)C[C@H]2C(=O)N[C@H]2CCCC[C@@H]2O)c2ccc(Nc3cncnc3)cc12` [Compound 36, (2S,4R)-1-(2-(3-acetyl-5-(pyrimidin-5-ylamino)-1H-indol-1-yl)acetyl)-4-fluoro-N-((1S,2S)-2-hydroxycyclohexyl)pyr-rolidine-2-carboxamide], the pIC50 was 5.00 to 6.00.

`CC(=O)c1cn(CC(=O)N2C[C@H](F)C[C@H]2C(=O)Nc2cccc(Cl)c2-n2cncn2)c2ccc(Nc3cncnc3)cc12` [Compound 37, (2S,4R)-1-(2-(3-acetyl-5-(pyrimidin-5-ylamino)-1H-indol-1-yl)acetyl)-N-(3-chloro-2-(1H-1,2,4-triazol-1-yl)phenyl)-4-fluoropyrrolidine-2-carboxamide] had a pIC50 of 5.00 to 6.00.

With `CC(=O)c1cn(CC(=O)N2C[C@H](F)C[C@H]2C(=O)Nc2ccccc2N2CCOC2=O)c2ccc(Nc3cncnc3)cc12` [Compound 40, (2S,4R)-1-(2-(3-acetyl-5-(pyrimidin-5-ylamino)-1H-indol-1-yl)acetyl)-4-fluoro-N-(2-(2-oxooxazolidin-3-yl)phenyl)pyrrolidine-2-carboxamide], the negative-log IC50 (pIC50) is 5.00 to 6.00.

Still in this test, the particulars now being: human factor D 80 nM, substrate Z-L-Lys-SBz1 and DTNB 100 μM each, pH 7.5; read-out: IC50.
On to `CC(=O)c1cn(CC(=O)N2C[C@H](F)C[C@H]2C(=O)Nc2cncc(Br)c2)c2ccc(Nc3cncnc3)cc12` [Compound 21, (2S,4R)-1-(2-(3-acetyl-5-(pyrimidin-5-ylamino)-1H-indol-1-yl)acetyl)-N-(5-bromopyridin-3-yl)-4-fluoropyrrolidine-2-carboxamide], for which the negative logarithm of the IC50 (pIC50) is more than 6.00.

For `CC(=O)c1cn(CC(=O)N2C[C@H](F)C[C@H]2C(=O)Nc2cncc(Cl)c2)c2ccc(Nc3cncnc3)cc12` [Compound 22, (2S,4R)-1-(2-(3-acetyl-5-(pyrimidin-5-ylamino)-1H-indol-1-yl)acetyl)-N-(5-chloropyridin-3-yl)-4-fluoropyrrolidine-2-carboxamide], the pIC50 was more than 6.00.

In the case of `CCN1Cc2ccc(NC(=O)[C@@H]3C[C@@H](F)CN3C(=O)Cn3cc(C(C)=O)c4cc(Nc5cncnc5)ccc43)cc2C1=O` [Compound 23, (2S,4R)-1-(2-(3-acetyl-5-(pyrimidin-5-ylamino)-1H-indol-1-yl)acetyl)-N-(2-ethyl-3-oxoisoindolin-5-yl)-4-fluoropyrrolidine-2-carboxamide], the pIC50 is more than 6.00.

As to `CC(=O)c1cn(CC(=O)N2C[C@H](F)C[C@H]2C(=O)Nc2cccc3c2OC(C)(C)C3)c2ccc(Nc3cncnc3)cc12` [Compound 24, (2S,4R)-1-(2-(3-acetyl-5-(pyrimidin-5-ylamino)-1H-indol-1-yl)acetyl)-N-(2,2-dimethyl-2,3-dihydrobenzofuran-7-yl)-4-fluoropyrrolidine-2-carboxamide], the pIC50 was more than 6.00.

In the case of `CC(=O)c1cn(CC(=O)N2C[C@H](F)C[C@H]2C(=O)Nc2ccc3cn[nH]c3c2)c2ccc(Nc3cncnc3)cc12` [Compound 25, (2S,4R)-1-(2-(3-acetyl-5-(pyrimidin-5-ylamino)-1H-indol-1-yl)acetyl)-4-fluoro-N-(1H-indazol-6-yl)pyrrolidine-2-carboxamide], the negative-log IC50 (pIC50) was more than 6.00.

Turning to `CC(=O)c1cn(CC(=O)N2C[C@H](F)C[C@H]2C(=O)Nc2ccc(F)c(-c3nnc4n3CCCCC4)c2)c2ccc(Nc3cncnc3)cc12` [Compound 26, (2S,4R)-1-(2-(3-acetyl-5-(pyrimidin-5-ylamino)-1H-indol-1-yl)acetyl)-4-fluoro-N-(4-fluoro-3-(6,7,8,9-tetrahydro-5H-[1,2,4]triazolo[4,3-a]azepin-3-yl)phenyl)pyrrolidine-2-carboxamide], the pIC50 is more than 6.00.

`CC(=O)c1cn(CC(=O)N2C[C@H](F)C[C@H]2C(=O)NC2CCCc3nc(-c4ccc(F)cc4)sc32)c2ccc(Nc3cncnc3)cc12` (stereo partly drawn) [Compound 28, (2S,4R)-1-(2-(3-acetyl-5-(pyrimidin-5-ylamino)-1H-indol-1-yl)acetyl)-4-fluoro-N-(2-(4-fluorophenyl)-4,5,6,7-tetrahydrobenzo[d]thiazol-7-yl)pyrrolidine-2-carboxamide]: the pIC50 was less than 5.00.

Turning to `CC(=O)c1cn(CC(=O)N2C[C@H](F)C[C@H]2C(=O)Nc2nc(-c3ccccc3Cl)ns2)c2ccc(Nc3cncnc3)cc12` [Compound 29, (2S,4R)-1-(2-(3-acetyl-5-(pyrimidin-5-ylamino)-1H-indol-1-yl)acetyl)-N-(3-(2-chlorophenyl)-1,2,4-thiadiazol-5-yl)-4-fluoropyrrolidine-2-carboxamide], the pIC50 is more than 6.00.

With `CC(=O)c1cn(CC(=O)N2C[C@H](F)C[C@H]2C(=O)Nc2cccnc2)c2ccc(Nc3cncnc3)cc12` [Compound 31, (2S,4R)-1-(2-(3-acetyl-5-(pyrimidin-5-ylamino)-1H-indol-1-yl)acetyl)-4-fluoro-N-(pyridin-3-yl)pyrrolidine-2-carboxamide], the pIC50 is more than 6.00.

Take `CC(=O)c1cn(CC(=O)N2C[C@H](F)C[C@H]2C(=O)Nc2ccccc2-c2nc3ccccc3s2)c2ccc(Nc3cncnc3)cc12` [Compound 32, (2S,4R)-1-(2-(3-acetyl-5-(pyrimidin-5-ylamino)-1H-indol-1-yl)acetyl)-N-(2-(benzo[d]thiazol-2-yl)phenyl)-4-fluoropyrrolidine-2-carboxamide]: the negative-log IC50 (pIC50) is less than 5.00.

For the molecule `CC(=O)c1cn(CC(=O)N2C[C@H](F)C[C@H]2C(=O)Nc2cncc(Cl)n2)c2ccc(Nc3cncnc3)cc12` [Compound 33, (2S,4R)-1-(2-(3-acetyl-5-(pyrimidin-5-ylamino)-1H-indol-1-yl)acetyl)-N-(6-chloropyrazin-2-yl)-4-fluoropyrrolidine-2-carboxamide], the pIC50 was more than 6.00.

Take `CC(=O)c1cn(CC(=O)N2C[C@H](F)C[C@H]2C(=O)Nc2cc3c(cc2F)OC(F)(F)O3)c2ccc(Nc3cncnc3)cc12` [Compound 35, (2S,4R)-1-(2-(3-acetyl-5-(pyrimidin-5-ylamino)-1H-indol-1-yl)acetyl)-4-fluoro-N-(2,2,6-trifluorobenzo[d][1,3]dioxol-5-yl)pyrrolidine-2-carboxamide]: the pIC50 is more than 6.00.

`CC(=O)c1cn(CC(=O)N2C[C@H](F)C[C@H]2C(=O)Nc2ccc3[nH]c(C)c(C)c3c2)c2ccc(Nc3cncnc3)cc12` [Compound 38, (2S,4R)-1-(2-(3-acetyl-5-(pyrimidin-5-ylamino)-1H-indol-1-yl)acetyl)-N-(2,3-dimethyl-1H-indol-5-yl)-4-fluoropyrrolidine-2-carboxamide]: the negative-log IC50 (pIC50) is more than 6.00.

Take `CC(=O)c1cn(C(=O)CN2C[C@H](F)C[C@H]2C(=O)Nc2nnc(-c3ccc(Cl)c(Cl)c3)s2)c2ccc(Nc3cncnc3)cc12` [Compound 39, (2S,4R)-1-(2-(3-acetyl-5-(pyrimidin-5-ylamino)-1H-indol-1-yl)-2-oxoethyl)-N-(5-(3,4-dichlorophenyl)-1,3,4-thiadiazol-2-yl)-4-fluoropyrrolidine-2-carboxamide]: the negative-log IC50 (pIC50) is less than 5.00.

Take `CC(=O)c1cn(CC(=O)N2C[C@H](F)C[C@H]2C(=O)Nc2cc(C)nc3nc(C(F)(F)F)nn23)c2ccc(Nc3cncnc3)cc12` [Compound 41, (2S,4R)-1-(2-(3-acetyl-5-(pyrimidin-5-ylamino)-1H-indol-1-yl)acetyl)-4-fluoro-N-(5-methyl-2-(trifluoromethyl)-[1,2,4]triazolo[1,5-a]pyrimidin-7-yl)pyrrolidine-2-carboxamide]: the pIC50 is less than 5.00.

With `CC(=O)c1cn(CC(=O)N2C[C@H](F)C[C@H]2C(=O)NC2CCCN(c3cnn(C)c3)C2)c2ccc(Nc3cncnc3)cc12` (stereo partly drawn) [Compound 42, (2S,4R)-1-(2-(3-acetyl-5-(pyrimidin-5-ylamino)-1H-indol-1-yl)acetyl)-4-fluoro-N-(1-(1-methyl-1H-pyrazol-4-yl)piperidin-3-yl)pyrrolidine-2-carboxamide], the pIC50 is more than 6.00.

As for `CC(=O)c1cn(CC(=O)N2C[C@H](F)C[C@H]2C(=O)NCc2cccnc2)c2ccc(Nc3cncnc3)cc12` [Compound 43, (2S,4R)-1-(2-(3-acetyl-5-(pyrimidin-5-ylamino)-1H-indol-1-yl)acetyl)-4-fluoro-N-(pyridin-3-ylmethyl)pyrrolidine-2-carboxamide], the pIC50 is more than 6.00.

Take `CC(=O)c1cn(CC(=O)N2C[C@H](F)C[C@H]2C(=O)Nc2ncc(Br)cn2)c2ccc(Nc3cncnc3)cc12` [Compound 44, (2S,4R)-1-(2-(3-acetyl-5-(pyrimidin-5-ylamino)-1H-indol-1-yl)acetyl)-N-(5-bromopyrimidin-2-yl)-4-fluoropyrrolidine-2-carboxamide]: the pIC50 was more than 6.00.

For `CC(=O)c1cn(CC(=O)N2C[C@H](F)C[C@H]2C(=O)Nc2ccc(OCc3ccccc3)cn2)c2ccc(Nc3cncnc3)cc12` [Compound 45, (2S,4R)-1-(2-(3-acetyl-5-(pyrimidin-5-ylamino)-1H-indol-1-yl)acetyl)-N-(5-(benzyloxy)pyridin-2-yl)-4-fluoropyrrolidine-2-carboxamide], the negative-log IC50 (pIC50) is more than 6.00.

As for `CC(=O)c1cn(CC(=O)N2C[C@H](F)C[C@H]2C(=O)Nc2ccc3ccccc3c2)c2ccc(Nc3cncnc3)cc12` [Compound 46, (2S,4R)-1-(2-(3-acetyl-5-(pyrimidin-5-ylamino)-1H-indol-1-yl)acetyl)-4-fluoro-N-(naphthalen-2-yl)pyrrolidine-2-carboxamide], the pIC50 is more than 6.00.

With `CC(=O)c1cn(CC(=O)N2C[C@H](F)C[C@H]2C(=O)Nc2cncc(Br)n2)c2ccc(Nc3cncnc3)cc12` [Compound 47, (2S,4R)-1-(2-(3-acetyl-5-(pyrimidin-5-ylamino)-1H-indol-1-yl)acetyl)-N-(6-bromopyrazin-2-yl)-4-fluoropyrrolidine-2-carboxamide], the pIC50 was more than 6.00.

The values are drawn from patent US9598446B2, “Amino compounds for treatment of complement mediated disorders” (priority 2014, dated 2017).
